Patent publication US9499553B2 (CHUGAI SEIYAKU KABUSHIKI KAISHA, priority 2013, dated 2016)

Target: T1, human PiT-1 (Homo sapiens, UniProt Q8WUM9)
T1 construct: expressed in transfected cells; host or cells: CHO cells
T1 sequence (Q8WUM9 1-679): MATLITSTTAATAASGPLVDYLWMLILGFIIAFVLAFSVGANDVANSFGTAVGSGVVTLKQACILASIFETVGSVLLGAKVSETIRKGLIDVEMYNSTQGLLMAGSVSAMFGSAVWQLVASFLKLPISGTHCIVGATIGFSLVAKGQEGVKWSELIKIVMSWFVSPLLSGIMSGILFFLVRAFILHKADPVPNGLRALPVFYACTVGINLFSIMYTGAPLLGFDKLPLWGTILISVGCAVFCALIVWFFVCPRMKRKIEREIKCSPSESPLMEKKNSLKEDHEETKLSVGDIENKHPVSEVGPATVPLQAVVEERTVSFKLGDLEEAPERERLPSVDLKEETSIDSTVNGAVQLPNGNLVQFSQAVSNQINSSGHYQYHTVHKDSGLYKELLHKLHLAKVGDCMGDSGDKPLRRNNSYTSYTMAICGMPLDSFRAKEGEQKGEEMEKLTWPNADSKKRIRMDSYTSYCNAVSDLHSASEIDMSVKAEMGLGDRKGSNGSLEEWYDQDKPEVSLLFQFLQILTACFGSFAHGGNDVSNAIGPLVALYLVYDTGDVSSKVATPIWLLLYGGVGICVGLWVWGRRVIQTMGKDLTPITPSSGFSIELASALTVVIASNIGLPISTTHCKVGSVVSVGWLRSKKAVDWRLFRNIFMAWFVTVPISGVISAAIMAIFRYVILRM
Test: Inhibitory effect on 33PO4 uptake into human PiT-1-expressing CHO cells
Format: cell-based
Conditions: compound 0.24, 1.2, 6 or 30 μM, pH 6.5, read-out: IC50 against 33PO4 uptake into human PiT-1-expressing cells
Method in brief: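 CHO cells transiently transfected with human PiT-1 or empty vector were exposed to compound, then to 33PO4 at room temperature and washed ice-cold; uptake counted by scintillation. Inhibition computed on PiT-1-specific uptake (PiT-1 minus vector cells) relative to DMSO wells.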

IC50: 2.2 µM
Compound: COCCN(C)CCOc1ccc(CN2C(=O)C(C(=O)Nc3ccc(C(F)(F)F)cc3-c3cc(C(F)(F)F)ncn3)=C(O)C3(CCCC3)N2C)c(F)c1F [Example 14, 7-[[2,3-Difluoro-4-[2-[2-methoxyethyl(methyl)amino]ethoxy]phenyl]methyl]-10-hydroxy-6-methyl-8-oxo-N-[4-(trifluoromethyl)-2-[6-(trifluoromethyl)pyrimidin-4-yl]phenyl]-6,7-diazaspiro[4.5]dec-9-ene-9-carboxamide]
